Experimental data as given in patent publication US20250205204A1, “Transcription Factor Brn2 Inhibitory Compounds for Use as Therapeutics” (The University of British Columbia, priority 2021, published 2025).
Like-named read-outs stand apart in the source and are kept apart here.

Columns and labels:
[1] = Metabolic stability in liver microsomes (MLM); assay type: in vitro ADME, mice; settings: 0.25 mg/mL protein; for half-life at 1 μM: mouse, liver microsomes, pH 7.4, 1 μM compound, read-out: T1/2 in mins (MLM); for Met Stab % (60 mins) MLM: percent remaining at 60 min, 1 μM compound, 1 mM NADPH
Protocol: Preparation of Potassium Phosphate Buffer, 50 mM (pH 7.4)
Potassium phosphate buffer (Kphos) was prepared by adding 0.647 g potassium phosphate monobasic (KH2PO4) and 3.527 g potassium phosphate dibasic (KH2PO4) to 400 mL of Milli-Q™ water. pH of the buffer was adjusted to 7.4 and volume was made up to 500 mL.
Preparation of Microsomes
Stock solutions of BRN2 inhibitors were prepared in DMSO at a concentration of 1 mM
Preparation of NADPH Solution
• Total Incubation volume: 100 μL • Compound concentration: 1 μM • Protein Concentration: 0.25 mg/mL • NADPH: 1 mM • Final DMSO contain: 0.1% • Number of replicates: 2 • Time points: 0, 5, 15, 30 and 60 min
From the above mix, 70 μL was added to individual wells of 96 well reaction plates and pre-incubated in a 37° C. water bath for 5 min. […] Reactions without NADPH and buffer controls (minus NADPH) at 0 min and 60 min were also incubated to rule out non-NADPH metabolism or chemical instability in the incubation buffer. All reactions were terminated using 100 μL of ice-cold acetonitrile containing internal standard at 0, 5, 15, 30 and 60 min.
Samples were monitored for parent compounds disappearance in MRM mode using LC-MS/MS.
The percent remaining of test compounds and positive control in each sample was determined by considering peak area ratio in the 0 minute sample as 100%. The Half-life of compounds in microsomes is calculated by formula: […]
In vitro intrinsic clearance (CL'int) (units in mL/min/kg) was calculated using the formula.
[formula] • For liver microsomes, scaling factor used was 45 mg microsomal protein per gm liver. • * Indicates liver weight (gm) which varies species wise. For mice the liver weights are 90 gm.

[2] = target: T1, BRN2 (Homo sapiens, UniProt P20265); test: BLI binding; settings: result in words
T1 sequence (P20265 1-443): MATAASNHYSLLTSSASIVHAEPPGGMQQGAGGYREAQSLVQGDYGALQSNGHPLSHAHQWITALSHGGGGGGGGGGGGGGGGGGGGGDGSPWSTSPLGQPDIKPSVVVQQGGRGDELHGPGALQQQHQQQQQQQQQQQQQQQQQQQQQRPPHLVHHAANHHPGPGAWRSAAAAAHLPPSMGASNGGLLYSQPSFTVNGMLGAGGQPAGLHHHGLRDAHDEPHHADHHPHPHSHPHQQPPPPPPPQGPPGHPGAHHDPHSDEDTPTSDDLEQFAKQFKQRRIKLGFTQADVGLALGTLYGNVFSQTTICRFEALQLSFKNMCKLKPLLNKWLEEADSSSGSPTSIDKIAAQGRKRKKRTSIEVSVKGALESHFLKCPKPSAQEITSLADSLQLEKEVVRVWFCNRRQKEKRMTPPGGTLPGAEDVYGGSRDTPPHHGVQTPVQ

[3] = test system: 42D^ENZR cells; test: Cell proliferation, BRN2 expressing 42D cells (crystal violet); assay type: cell-based; settings: for Growth Specificity: 42D (express BRN2) versus 16D (no BRN2) cells, result in words
Protocol: Step 3: Cell Proliferation
Plate 42DE^NZR (˜7000 cells per well) and 16D^CRPC (˜5000 cells per well) cells in 96 well plate with a volume of 100 μL per well. • 2. Next day 1 mL aliquots of media are combined with 3× the desired concentration of compounds. The aliquots are vortexed and 50 μL of each 3× concentration is added to the 100 μL of media in each well to give the ix desired concentration.
The following are the desired concentrations:
Approximately 72 hours later, 17 μL of 10% Glutaraldehyde is added to each well and plates are placed on a shaker for 20-30 minutes. • 4. Media is washed off the fixed cells by slow submersion in a container of water. Then the water is removed by tapping the plate upside down. • 5. 75 μL of Crystal Violet™ solution is added into the 96 well plates and placed on a shaker for ˜30 minutes. • 6. Media is washed off the fixed cells by repeated slow submersion in a container of water and the plates are allowed to dry over-night. • 7. Next day, 75 μL of Sorensen Solution is accurately pipetted into each well. The plates placed on a shaker for ˜30 minutes. • 8. Absorbance is measured in the plate at 590 nm.
There is a distinction in TABLES 1 and 2 difference between “Active” and “Specific” or “Specificity”.

[4] = 42D cells, proliferation, about 72 hours, read-out: 42D IC50
[5] = read-out: IC50 (effective on both 42D and 16D cells)

Row | SMILES | half-life at 1 μM [1] | Met Stab % (60 mins) MLM [1] | BLI binding [2] | Growth Specificity ([3]; about 72 hours) | IC50 [3, 4] | IC50 [3, 5]
1 | O=C1/C(=N\Nc2nc3ccccc3s2)Cc2cc(N3CCOCC3)ccc21 [7-103] | 44 min | 42% | No binding | Not specific | – | –
2 | O=C1Nc2cc(F)ccc2/C1=N\Nc1nc2ccccc2s1 [7-124] | 27 min | 21% | No binding | Not specific | – | –
3 | O=C1/C(=N\Nc2nc3ccccc3s2)Nc2cc(F)ccc21 [7-123] | 25 min | 18% | No binding | Not specific | – | –
4 | CCN(CC)c1ccc2c(c1)C(=O)/C(=N\Nc1nc3ccccc3s1)C2 [7-109] | 13 min | 3% | Positive binding | Not specific | – | –
5 | CC(C)(C)OC(=O)c1ccc2c(c1)C(=O)/C(=N\Nc1nc3ccccc3s1)C2 [7-119] | 27 min | 18% | No binding | Not specific | – | –
6 | COC(=O)c1ccc2nc(N/N=C3/Cc4ccccc4C3=O)sc2c1 [7-111] | 15 min | 6% | No binding | No activity | – | –
7 | O=C1/C(=N\Nc2nc3ccccc3s2)Nc2cc(Br)ccc21 [7-116] | > 60 min | 64% | No binding | Not specific | – | –
8 | O=C1/C(=N\Nc2nc3ccccc3s2)Oc2ccccc21 [7-90] | 13 min | 4% | no binding | Not specific | – | –
9 | O=C1/C(=N\Nc2cc3ccccc3s2)Cc2ccccc21 [7-83, (Z)-2-(2-(benzo[b]thiophen-2-yl)hydrazineylidene)-2,3-dihydro-1H-inden-1-one] | 17 min | 16% | – | Not effective on 42D or 16D cells | – | –
10 | C/C(=N\Nc1nc2ccccc2s1)c1ccccc1C [7-54] | – | 0% | – | Not effective on 42D or 16D cells | – | –
11 | O=C1/C(=N\Nc2nc3ccccc3s2)CC2C=CC=CC12 (stereo not shown) [7-41] | 33 min | 28% | – | Not effective on 42D or 16D cells | – | –
12 | CC1(C)Cc2ccccc2/C1=N\Nc1nc2ccccc2s1 [7-61] | 10 min | 1% | – | effective on both 42D and 16D cells | – | 10 µM
13 | Clc1ccc2c(c1)/C(=N\Nc1nc3ccccc3s1)CC2 [7-38] | 8 min | 1% | – | Not effective on 42D or 16D cells | – | –

Now from value to molecule, other results behind:

Row | half-life at 1 μM [1] | Met Stab % (60 mins) MLM [1] | BLI binding [2] | SMILES | Growth Specificity ([3]; about 72 hours) | IC50 [3, 4] | IC50 [3, 5]
14 | > 60 min | 67% | Positive binding | O=C1/C(=N\Nc2nc3ccccc3s2)Cc2c1cccc2C(F)(F)F [7-91] | Specific to 42D | ~2 µM | –
15 | 10 min | 1% | No binding | CC(C)c1ccc2c(c1)C/C(=N/Nc1nc3ccccc3s1)C2=O [7-122] | Not specific | – | –
16 | 23 min | 14% | No binding | CN(C)c1ccc2c(c1)C/C(=N/Nc1nc3ccccc3s1)C2=O [7-127] | Not specific | – | –
17 | 50 min | 38% | Positive binding | O=C1/C(=N\Nc2nc3ccccc3s2)Cc2cc(F)ccc21 [7-70, (Z)-2-(2-(benzo[d]thiazol-2-yl)hydrazineylidene)-5-fluoro-2,3-dihydro-1H-inden-1-one] | Specific to 42D | ~5 µM | –
18 | – | – | No binding | CNC(=O)c1ccc2c(c1)C/C(=N/Nc1nc3ccccc3s1)C2=O [7-117] | Not specific | – | –
19 | 48 min | 41% | Positive binding | N#Cc1ccc2c(c1)C(=O)/C(=N\Nc1nc3ccccc3s1)C2 [7-92] | Specific but weak | ~15 µM | –
20 | 56 min | 46% | Positive binding but not strong | O=C1/C(=N\Nc2nc3ccccc3s2)Cc2cc(F)cc(F)c21 [7-102] | Specific to 42D cells | ~2.5 µM | –
21 | 46 min | 38% | Positive binding | O=C1/C(=N\Nc2nc3ccccc3s2)Cc2cccc(C(F)(F)F)c21 [7-106] | Specific to 42D cells | ~2 µM | –
22 | 38 min | 30% | Positive binding | O=C1/C(=N\Nc2nc3ccccc3s2)Cc2cc(F)c(Cl)cc21 [7-100] | Specific to 42D | ~2 µM | –
23 | > 60 min | 75% | No binding | O=C1/C(=N\Nc2nc3ccccc3s2)Cc2cc(C3CC3)ccc21 [7-105] | Not specific | – | –
24 | 36 min | 30% | Positive binding | O=C1/C(=N\Nc2nc3ccccc3s2)Cc2cc(O)ccc21 [7-121] | Not specific | – | –
25 | > 60 min | 67% | Positive binding | O=C1/C(=N\Nc2nc3ccccc3s2)Cc2c1ccc(F)c2F [7-101] | Specific to 42D cells | 1 to 2.5 µM | –
26 | > 60 min | 69% | Positive binding | O=C1/C(=N\Nc2nc3ccccc3s2)Cc2cc(F)c(F)cc21 [7-97] | Specific to 42D | ~2 µM | –
27 | – | – | No binding | CNC(=O)c1ccc2c(c1)C(=O)/C(=N\Nc1nc3ccccc3s1)C2 [7-118] | very low activity | – | –
28 | 44 min | 39% | no binding | N#Cc1ccc2c(c1)C/C(=N/Nc1nc3ccccc3s1)C2=O [7-93] | Specific but weak | ~15 µM | –
29 | 25 min | 17% | No binding | CCc1ccc2c(c1)C/C(=N/Nc1nc3ccccc3s1)C2=O [7-104] | Not specific | – | –
30 | 15 min | 6% | binding | O=C1/C(=N\Nc2nc3ccccc3s2)Cc2c(F)cccc21 [7-126] | specific | – | –
31 | 7 min | 0% | – | Fc1cccc2c1/C(=N\Nc1nc3ccccc3s1)CC2 [7-58] | effective on both 42D and 16D cells | – | 10 µM
